Data set [1] deals with mouse coronavirus MHV-A59-GFP.
Data set [2] concerns the target T1, RBD-ACE2 interaction (Severe acute respiratory syndrome coronavirus 2, UniProt P0DTC2).
T1 construct: purchased Genscript
It counts as binding. The following applies: compared to the negative control.

Data set [3] deals with Delta strain. Put plainly: Plaque assay, Delta strain. It counts as cell-based, SARS-CoV-2.
The test system of data set [4] is human coronavirus NL63. The data set is described as follows: Gene expression (qPCR) in NL63 infected Calu3 cells. It counts as cell-based. The following applies: NL63 0.1 MOI, LG 20 uM, 48 hrs PI. On the procedure:
(§1) FIG. 2A-B are a series of graphs depicting broad spectrum anti-viral and anti-inflammatory activity of LG. Histograms showing mRNA expression assessed by qPCR. A) Effect of LG on poly I:C (P I:C) stimulated Calu 3 cells with or without LG treatment, B) Anti-inflammatory effect of LG treatment in NL63 infected Calu 3 cells. Cells were collected 48 hrs of post infection (PI) with NL63 virus (0.1 MOI) (C, Control) and treated with LG (20 uM) (T, Treatment), n=3, Data expressed as mean±SEM, * Compared to NL63, *p<0.05, **p<0.005, ***p<0.0005.
(§2) To examine whether LG has broad spectrum antiviral activity, Calu3 cells are stimulated with 10 ug/ml poly IC for 24 h, treated with 20 uM LG for 48 h, and then RNA was isolated for gene expression analyses. […] Further the inventors examined the effect of LG on the Calu3 lung cells infected with human coronavirus NL63.
(In qPCR the cycle at which signal appears reflects the starting amount.)

Data set [5] deals with icSARS-CoV-2nMG (CoV2-GFP). It counts as cell-based, SARS-CoV-2.
In data set [6] the test system is mouse coronavirus (MHV), K18 hACE2 transgenic mouse, and mouse adapted coronavirus (MA10) infection models.
In data set [7] the test system is poly I:C stimulated Calu 3 cells. Put plainly: Gene expression (qPCR) in poly I:C stimulated Calu3 cells. Particulars: 10 ug/ml poly IC 24 h, 20 uM LG 48 h. It counts as cell-based. On the procedure:
as §1, §2

Data set [8] relates to WA strain. The data set is described as follows: Plaque assay, WA strain. The format is cell-based, SARS-CoV-2.
Data set [9] has as its system mouse coronavirus MHV-A59-GFP. Put plainly: microbe, parasite or virus in culture. The following applies: read-out: inhibition of infection.
Data set [10] has as its system icSARS-CoV-2nMG. The format is cell-based, SARS-CoV-2.

The record followed here is patent US20240065983A1, “COMPOSITION AND METHOD FOR TREATING COVID-19” (University of South Florida, priority 2021, published 2024).

SMILES strings stand for the structures.

A word on the inhibition: it is the change of the read-out against control, counted positive when it falls.

As for `CC(O)c1ccc(CCOc2ccc(CC3SC(=O)NC3=O)cc2)nc1` (stereo not drawn) [LG, leriglitazone], the “cell killing (bright field images)” value in data set [1] (20 uM LG, DBT cells) is “without killing the cells”. Besides, the “inhibition of coronavirus infection (dose dependence)” value in data set [1] (DBT cells, GFP) is given as “inhibited coronavirus infection in a dose-dependent fashion”. In addition, the “reduction in infection versus Remdesvir” value in data set [1] (LG 20 uM vs Remdesvir 10 nM) was “significantly higher reduction in infection”. In data set [1] (LG 20 uM, compared to vehicle control), the N transcript entry is on record as “significant reduction in N transcript”. For the same compound, in data set [2], the “interference of RBD-ACE2 interaction” value was “significantly inhibited the RBD-ACE2 interaction in a dose-dependent manner”. The “reduction in plaque titers” value in data set [3] is recorded as above 2 log. In addition, the “expression of anti-inflammatory genes at transcript level” value in [4] is on record as “altered expression of anti-inflammatory genes at the transcript level similar to that found in poly-IC experiment”. Besides, the CoV2 infection entry in [5] is given as “dose-dependent decrease of CoV2 infection”. Besides, the “infected GFP-positive cells” value in data set [5] (LG 20 uM, WA strain, Caco2) was “significant reduction in infected GFP-positive cells”. Moreover, the “efficacy in in vivo studies” value in [6] is on record as above 70%. For the same compound, in data set [7], the “expression of IL-6, IL1β, IFNγ, TNFα, NFkB, NLRP3” value is given as “inhibits expression”; the “expression of IL-10 and PPARγ” value is “increases expression”. Further, in [8], the “reduction in plaque titers” value is given as above 2 log. Moreover, in data set [9], the inhibition at 20 µM is above 70%.
On to `CCCCC/C=C\C/C=C\CCCCCCCC(=O)O` [LLA, linoleic acid], for which the “viral infection as seen by N gene expression” value in data set [10] is listed as “significantly decreased viral infection”.
